Values quoted from earlier work as cited in EP1379546B1, “PEPTIDE FOR THE DIAGNOSIS AND THERAPY OF ALZHEIMER'S DISEASE” (Leibniz-Institut für Altersforschung - …, priority 2001, dated 2002).

Target: Aβ (Homo sapiens, UniProt P05067)
Settings: inhibition of Aβ fibril formation and anticytotoxic effect, reported in Tomiyama et al., J. Biol. Chem. 1996

Sequence of Aβ (P05067 672-711 limits assumed): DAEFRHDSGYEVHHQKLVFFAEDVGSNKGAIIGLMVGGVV

SMILES	Dissoziationskonstante
CCCCCCCCCCCCCCCC[N+]1(C)CCCCC1.[Br-] [Hexadecyl-N-methylpiperidiniumbromid]	µM- bis mM-Bereich
CO[C@H]1/C=C/O[C@@]2(C)Oc3c(C)c(O)c4c(O)c(c(/C=N/N5CCN(C)CC5)c(O)c4c3C2=O)NC(=O)/C(C)=C\C=C\[C@H](C)[C@H](O)[C@@H](C)[C@@H](O)[C@@H](C)[C@H](OC(C)=O)[C@@H]1C [Rifampicin]	µM- bis mM-Bereich
